Data: ChEMBL document CHEMBL3233003, “Chromodomain antagonists that target the polycomb-group methyllysine reader protein chromobox homolog 7 (CBX7)” (J Med Chem, 2014)
Activity calls are given as the source filed them. No cut-off for these calls is given here. Starred links: 1 amine or outer side, 2 acyl side, 3 side chain; linkers in the order of their positions; H or OH if unused. Non-standard residues stand in square brackets, D forms with d. Residues, ends and D or L forms follow the SMILES beside them. *: point of attachment. Benzenesulfonyl(4-OMe) = COc1ccc(S(=O)(=O)*)cc1; Benzoyl(4-CO2Me) = COC(=O)c1ccc(C(=O)*)cc1; Benzoyl(4-COOH) = O=C(O)c1ccc(C(=O)*)cc1; Lys(Me3) = C[N+](C)(C)CCCC[C@H](N)C(=O)O; Benzoyl(4-Br) = O=C(c1ccc(Br)cc1)*; Ethylenediamine = C(CN[*:2])N[*:1]; Gly(cPent) = N[C@H](C(=O)O)C1CCCC1; X3 = COC(=O)c1ccc(S(=O)(=O)*)cc1; X6 = O=C(O)c1ccc(S(=O)(=O)*)cc1; Tos = Cc1ccc(S(=O)(=O)*)cc1; X2 = O=C(c1c[nH]c2ccccc12)*; NHCH(CH2OH)2 = OCC(CO)N*; X10 = O=C(Cc1ccccc1Br)*; X7 = O=S(=O)(c1cccnc1)*

Experiments:
[1] = target: T1, E3 SUMO-protein ligase CBX4 (Homo sapiens, UniProt O00257); test: Binding affinity to CBX4 (unknown origin) by isothermal titration calorimetry assay
T1 sequence (O00257 whole entry): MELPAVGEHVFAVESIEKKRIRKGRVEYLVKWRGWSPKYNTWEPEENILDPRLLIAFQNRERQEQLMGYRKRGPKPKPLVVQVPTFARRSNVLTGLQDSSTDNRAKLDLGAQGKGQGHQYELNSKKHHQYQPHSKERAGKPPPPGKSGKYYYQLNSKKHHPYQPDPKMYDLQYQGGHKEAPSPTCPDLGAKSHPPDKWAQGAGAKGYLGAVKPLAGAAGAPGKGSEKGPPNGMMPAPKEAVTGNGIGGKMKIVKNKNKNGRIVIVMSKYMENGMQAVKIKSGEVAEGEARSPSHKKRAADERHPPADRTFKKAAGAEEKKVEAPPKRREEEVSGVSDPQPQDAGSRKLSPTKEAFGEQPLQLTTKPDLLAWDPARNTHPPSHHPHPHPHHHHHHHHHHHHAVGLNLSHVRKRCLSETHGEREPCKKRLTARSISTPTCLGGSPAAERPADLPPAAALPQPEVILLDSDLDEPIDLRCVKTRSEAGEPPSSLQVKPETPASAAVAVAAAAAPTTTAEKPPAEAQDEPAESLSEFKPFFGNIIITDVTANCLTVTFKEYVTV

[2] = target: Chromobox protein homolog 1 (Homo sapiens, UniProt P83916); test: Binding affinity to CBX1 (unknown origin) by isothermal titration calorimetry assay
[3] = target: T2, Chromobox protein homolog 7 (Homo sapiens, UniProt O95931); test: Binding affinity to CBX7 (unknown origin) by isothermal titration calorimetry assay
T2 sequence (O95931 whole entry): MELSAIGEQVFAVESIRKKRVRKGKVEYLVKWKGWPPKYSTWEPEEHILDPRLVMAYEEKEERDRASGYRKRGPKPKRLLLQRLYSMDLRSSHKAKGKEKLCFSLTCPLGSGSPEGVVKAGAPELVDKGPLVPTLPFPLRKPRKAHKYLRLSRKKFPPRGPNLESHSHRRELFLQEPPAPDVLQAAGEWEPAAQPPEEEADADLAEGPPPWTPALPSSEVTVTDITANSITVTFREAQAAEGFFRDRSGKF

[4] = target: T2, Chromobox protein homolog 7; test: (§1) Displacement of FITC-labeled H3K27me3 from CBX7 (unknown origin) after 15 mins by fluorescence polarization assay
[5] = target: T3, Chromobox protein homolog 8 (Homo sapiens, UniProt Q9HC52); test: Binding affinity to CBX8 (unknown origin) by isothermal titration calorimetry assay
T3 sequence (Q9HC52 whole entry): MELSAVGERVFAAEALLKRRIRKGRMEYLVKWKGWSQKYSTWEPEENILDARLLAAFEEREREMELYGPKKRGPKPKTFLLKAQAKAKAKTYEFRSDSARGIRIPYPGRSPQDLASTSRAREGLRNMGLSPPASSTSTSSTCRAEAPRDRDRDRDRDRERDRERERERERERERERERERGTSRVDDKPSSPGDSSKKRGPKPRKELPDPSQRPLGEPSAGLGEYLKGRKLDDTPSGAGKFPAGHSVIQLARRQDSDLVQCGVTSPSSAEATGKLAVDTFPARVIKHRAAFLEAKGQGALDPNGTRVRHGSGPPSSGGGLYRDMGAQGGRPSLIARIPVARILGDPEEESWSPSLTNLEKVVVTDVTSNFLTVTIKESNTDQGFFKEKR

[6] = target: T4, Chromobox protein homolog 7 (Homo sapiens) (UniProt O95931); test: as §1
T4 sequence (whole entry): T2 sequence (O95931 whole entry)

Chromobox protein homolog 1, sequence (P83916 whole entry): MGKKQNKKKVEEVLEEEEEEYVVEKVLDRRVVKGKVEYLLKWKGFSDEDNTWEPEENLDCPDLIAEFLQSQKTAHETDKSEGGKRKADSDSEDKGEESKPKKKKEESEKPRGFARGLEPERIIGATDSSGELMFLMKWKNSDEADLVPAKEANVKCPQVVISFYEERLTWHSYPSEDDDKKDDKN

| Compound | Kd [3] [µM] | IC50 [4] [µM] | Kd [5] [µM] | also measured |
| --- | --- | --- | --- | --- |
| CC(=O)N[C@@H](Cc1ccccc1)C(=O)N[C@@H](C)C(=O)N[C@@H](CC(C)C)C(=O)N[C@@H](CCCC[N+](C)(C)C)C(=O)N[C@H](CO)C(N)=O | 5.4 | 9 | 15 | – |
| CC(=O)N[C@@H](Cc1ccccc1)C(=O)N[C@@H](C)C(=O)N[C@@H](Cc1ccc(O)cc1)C(=O)N[C@@H](CCCC[N+](C)(C)C)C(=O)N[C@@H](CO)C(N)=O (Ac-FAY[Lys(Me3)]S-NH2) | – | – | 12.3 | – |
| COC(=O)c1ccc(S(=O)(=O)N[C@@H](Cc2ccccc2)C(=O)N[C@@H](C)C(=O)N[C@@H](CC(C)C)C(=O)N[C@@H](CCCC[N+](C)(C)C)C(=O)N[C@@H](CO)C(N)=O)cc1 (X3-FAL[Lys(Me3)]S-NH2) | – | 57 | – | – |
| CC(C)C[C@H](NC(=O)[C@H](C)NS(=O)(=O)c1cccnc1)C(=O)N[C@@H](CCCC[N+](C)(C)C)C(=O)N[C@@H](CO)C(N)=O (X7-AL[Lys(Me3)]S-NH2) | – | > 250 | – | – |
| CC(C)C[C@H](NC(=O)[C@H](C)NC(=O)Cc1ccccc1Br)C(=O)N[C@@H](CCCC[N+](C)(C)C)C(=O)N[C@@H](CO)C(N)=O (X10-AL[Lys(Me3)]S-NH2) | – | 89 | – | – |
| COc1ccc(S(=O)(=O)N[C@@H](C)C(=O)N[C@@H](CC(C)C)C(=O)N[C@@H](CCCC[N+](C)(C)C)C(=O)N[C@@H](CO)C(N)=O)cc1 ({Benzenesulfonyl(4-OMe)}-AL[Lys(Me3)]S-NH2) | – | > 250 | – | – |
| CC(C)C[C@H](NC(=O)[C@H](C)NC(=O)[C@H](Cc1ccccc1)NC(=O)c1ccc(Br)cc1)C(=O)N[C@@H](CCCC[N+](C)(C)C)C(=O)N[C@@H](CO)C(N)=O ({Benzoyl(4-Br)}-FAL[Lys(Me3)]S-NH2) | 0.28 | 4.6 | 1.5 | – |
| COC(=O)c1ccc(C(=O)N[C@@H](Cc2ccccc2)C(=O)N[C@@H](C)C(=O)N[C@@H](CC(C)C)C(=O)N[C@@H](CCCC[N+](C)(C)C)C(=O)N[C@@H](CO)C(N)=O)cc1 ({Benzoyl(4-CO2Me)}-FAL[Lys(Me3)]S-NH2) | – | 6.3 | – | – |
| CC(C)C[C@H](NC(=O)[C@H](C)NC(=O)[C@H](Cc1ccccc1)NC(=O)c1ccc(C(=O)O)cc1)C(=O)N[C@@H](CCCC[N+](C)(C)C)C(=O)N[C@@H](CO)C(N)=O ({Benzoyl(4-COOH)}-FAL[Lys(Me3)]S-NH2) | – | 6.2 | – | – |
| Ac-FALKS-NH2 | – | – | – | inhibition [6]: inactive |

The next lines start with results.

| Kd [3] [µM] | IC50 [4] [µM] | Kd [5] [µM] | Compound | also measured |
| --- | --- | --- | --- | --- |
| 2 | 11 | 14.2 | CC(=O)N[C@@H](Cc1ccccc1)C(=O)N[C@@H](C)C(=O)N[C@@H](CC(C)C)C(=O)N[C@@H](CCCC[N+](C)(C)C)C(=O)N[C@@H](CO)C(N)=O | Kd [1]: 3.7 µM; Kd [2]: 43 µM |
| 4.1 | – | 15 | C[C@H](NC(=O)Cc1ccccc1)C(=O)N[C@H](C(=O)N[C@@H](CCCC[N+](C)(C)C)C(=O)NC(CO)CO)C1CCCC1 | – |
| – | 34 | – | Cc1ccc(S(=O)(=O)NCC(=O)N[C@@H](C)C(=O)N[C@@H](CC(C)C)C(=O)N[C@@H](CCCC[N+](C)(C)C)C(=O)N[C@@H](CO)C(N)=O)cc1 (Tos-GAL[Lys(Me3)]S-NH2) | – |
| – | 67 | – | CC(C)C[C@H](NC(=O)[C@H](C)NC(=O)c1c[nH]c2ccccc12)C(=O)N[C@@H](CCCC[N+](C)(C)C)C(=O)N[C@@H](CO)C(N)=O (X2-AL[Lys(Me3)]S-NH2) | – |
| – | 6.7 | – | CC(C)C[C@H](NC(=O)[C@H](C)NC(=O)[C@H](Cc1ccccc1)NS(=O)(=O)c1ccc(C(=O)O)cc1)C(=O)N[C@@H](CCCC[N+](C)(C)C)C(=O)N[C@@H](CO)C(N)=O (X6-FAL[Lys(Me3)]S-NH2) | – |
| – | 53 | – | CC(C)C[C@H](NC(=O)[C@H](C)NC(=O)CNS(=O)(=O)c1ccc(C(=O)O)cc1)C(=O)N[C@@H](CCCC[N+](C)(C)C)C(=O)N[C@@H](CO)C(N)=O (X6-GAL[Lys(Me3)]S-NH2) | – |
| 0.22 | – | 0.48 | C[C@H](NC(=O)[C@H](Cc1ccccc1)NC(=O)c1ccc(Br)cc1)C(=O)N[C@H](C(=O)N[C@@H](CCCC[N+](C)(C)C)C(=O)NCCN)C1CCCC1 ({Benzoyl(4-Br)}-FA[Gly(cPent)][Lys(Me3)]-Ethylenediamine) | – |
| 0.2 | – | 1.89 | COC(=O)c1ccc(C(=O)N[C@@H](Cc2ccccc2)C(=O)N[C@@H](C)C(=O)N[C@H](C(=O)N[C@@H](CCCC[N+](C)(C)C)C(=O)NC(CO)CO)C2CCCC2)cc1 ({Benzoyl(4-CO2Me)}-FA[Gly(cPent)][Lys(Me3)]-{NHCH(CH2OH)2}) | Kd [1]: 0.29 µM; Kd [2]: > 500 µM |
| 0.2 | – | 1.78 | COC(=O)c1ccc(C(=O)N[C@@H](Cc2ccccc2)C(=O)N[C@@H](C)C(=O)N[C@H](C(=O)N[C@@H](CCCC[N+](C)(C)C)C(=O)N[C@@H](CO)C(N)=O)C2CCCC2)cc1 ({Benzoyl(4-CO2Me)}-FA[Gly(cPent)][Lys(Me3)]S-NH2) | – |
